From patent US20150004134A1, “TREATMENT OF CANCER WITH HETEROCYCLIC INHIBITORS OF GLUTAMINASE” (Calithera Biosciences, Inc., priority 2012, published 2015)
pIC50: −log10 of the molar value. Read-outs that look alike come from different tables or passages of the source.

Tested on: P493-6 (myc "on") cells
Experiment: Cell Proliferation Assay
Assay type: cell-based
Outline: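 P493-6 cells with myc on, 10,000 per well in RPMI/10% FBS, exposed to serially diluted compound (0.5% DMSO final) for 72 h at 37 °C, 5% CO2. Antiproliferative effect read by Cell Titer Glo luminescence or Viacount FACS viability count.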

[1] = P493-6, 72 h, read-out: Cell prolif P493 72 h IC50, P493-6 cells, 72 h

CCCC(=O)OCN(C(=O)C(CO)c1cccc(CNC(=O)OC(C)(C)C)c1)c1nnc(CCCCc2ccc(NC(=O)Cc3ccccc3)nn2)s1 (stereo not shown) [Compound 567] was tested. Which pIC50 [1] did it give?
Its pIC50 is 7.68.

CC(C(=O)Nc1nnc(CCCCc2ccc(NC(=O)Cc3ccccc3)nn2)s1)c1ccc(F)c(CNC(=O)OC(C)(C)C)c1 (stereo not shown) [Compound 568] was tested. Which pIC50 [1] did it give?
The pIC50 was 7.55.

How did the pIC50 [1] turn out when CN(Cc1cc(CC(=O)Nc2nnc(CCCCc3ccc(NC(=O)Cc4ccccc4)nn3)s2)ccc1F)C(=O)OC(C)(C)C [Compound 569] was run?
Its pIC50 is 7.96.

CCCC(=O)OCN(C(=O)Cc1cccc(CC(=O)N2CCC(F)(F)CC2)c1)c1nnc(CCCCc2ccc(NC(=O)Cc3ccccc3)nn2)s1 [Compound 570] was tested. Which pIC50 [1] did it give?
Its pIC50 is 8.05.

CC(C)(C)OC(=O)NCc1cccc(CC(=O)Nc2ccc(CCCCc3nnc(NC(=O)Cc4cccc(CNC(=O)OC(C)(C)C)c4)s3)nn2)c1 [Compound 571] was tested. Which pIC50 [1] did it give?
Its pIC50 is 8.00.

How did the pIC50 [1] turn out when CCOC(=O)NCc1cccc(CC(=O)Nc2ccc(CCCCc3nnc(NC(=O)Cc4cccc(CNC(=O)OCC)c4)s3)nn2)c1 [Compound 572] was run?
Its pIC50 is 8.40.

How did the pIC50 [1] turn out when CCOC(=O)NCc1cc(C(C)C(=O)Nc2nnc(CCCCc3ccc(NC(=O)Cc4ccccc4)nn3)s2)ccc1F (stereo not shown) [Compound 574] was run?
The pIC50 was 7.55.

COc1ccc(CC(=O)Nc2nnc(CCCCc3ccc(NC(=O)Cc4ccccc4)nn3)s2)cc1O [Compound 582] was tested. Which pIC50 [1] did it give?
Its pIC50 is 7.34.

With Nc1ccc(CCCCc2nnc(NC(=O)Cc3cccc(OC(F)(F)F)c3)s2)nn1 [Compound 584] as the compound, how does the pIC50 [1] read?
Its pIC50 is 5.85.

COC(=O)NC(C)c1cccc(CC(=O)Nc2ccc(CCCCc3nnc(NC(=O)Cc4ccccc4)s3)nn2)c1 (stereo not shown) [Compound 589] was tested. Which pIC50 [1] did it give?
The pIC50 was 7.60.

How did the pIC50 [1] turn out when CC(C(=O)Nc1nnc(CCCCc2ccc(NC(=O)Cc3cccc(CNC(=O)OCCF)c3)nn2)s1)c1ccccc1 (stereo not shown) [Compound 591] was run?
Its pIC50 is 7.48.

With CC(C)NC(=O)OC(C)c1cccc(CC(=O)Nc2nnc(CCCCc3ccc(NC(=O)Cc4ccccc4)nn3)s2)c1 (stereo not shown) [Compound 598] as the compound, how does the pIC50 [1] read?
Its pIC50 is 8.40.

With CC(C(=O)Nc1ccc(CCCCc2nnc(NC(=O)Cc3ccccc3)s2)nn1)c1ccc(F)c(CN(C)C(=O)OC(C)(C)C)c1 (stereo not shown) [Compound 599] as the compound, how does the pIC50 [1] read?
Its pIC50 is 7.41.

With CC(NC(=O)OC(C)(C)C)c1cccc(CC(=O)Nc2ccc(CCCCc3nnc(NC(=O)C(C)c4ccccc4)s3)nn2)c1 (stereo not shown) [Compound 603] as the compound, how does the pIC50 [1] read?
The pIC50 was 7.64.

How did the pIC50 [1] turn out when COC(C(=O)Nc1nnc(CCCCc2ccc(NC(=O)Cc3cccc(CNC(=O)CC(O)C(F)(F)F)c3)nn2)s1)c1ccccc1 (stereo not shown) [Compound 604] was run?
The pIC50 was 7.38.

With COC(C(=O)Nc1nnc(CCCCc2ccc(NC(=O)Cc3cccc(CNC(=O)CC(C)(O)C(F)(F)F)c3)nn2)s1)c1ccccc1 (stereo not shown) [Compound 605] as the compound, how does the pIC50 [1] read?
Its pIC50 is 7.74.

With CC(C(=O)Nc1nnc(CCCCc2ccc(NC(=O)Cc3cccc(CNC(=O)CC(O)C(F)(F)F)c3)nn2)s1)c1ccccc1 (stereo not shown) [Compound 606] as the compound, how does the pIC50 [1] read?
Its pIC50 is 7.35.

CC(C(=O)Nc1nnc(CCCCc2ccc(NC(=O)Cc3cccc(CNC(=O)CC(C)(O)C(F)(F)F)c3)nn2)s1)c1ccccc1 (stereo not shown) [Compound 607] was tested. Which pIC50 [1] did it give?
Its pIC50 is 7.33.

With CCNC(=O)OC(C)c1cccc(CC(=O)Nc2ccc(CCCCc3nnc(NC(=O)Cc4ccccc4)s3)nn2)c1 (stereo not shown) [Compound 610] as the compound, how does the pIC50 [1] read?
Its pIC50 is 7.96.

CC(O)c1cccc(CC(=O)Nc2ccc(CCCCc3nnc(NC(=O)Cc4ccccc4)s3)nn2)c1 (stereo not shown) [Compound 611] was tested. Which pIC50 [1] did it give?
Its pIC50 is 7.40.

CC(C(=O)Nc1ccc(CCCCc2nnc(NC(=O)C(C)c3ccccc3)s2)nn1)c1ccccc1 (stereo not shown) [Compound 613] was tested. Which pIC50 [1] did it give?
Its pIC50 is 6.35.

With CS(=O)(=O)CCCOc1cccc(CC(=O)Nc2ccc(CCCCc3nnc(NC(=O)Cc4ccccc4)s3)nn2)c1 [Compound 623] as the compound, how does the pIC50 [1] read?
The pIC50 was 7.59.

With O=C(O)Cc1cccc(OCC(=O)Nc2nnc(CCCCc3ccc(NC(=O)Cc4ccccc4)nn3)s2)c1 [Compound 627] as the compound, how does the pIC50 [1] read?
Its pIC50 is 6.07.

COC(=O)Cc1cccc(OCC(=O)Nc2nnc(CCCCc3ccc(NC(=O)Cc4ccccc4)nn3)s2)c1 [Compound 628] was tested. Which pIC50 [1] did it give?
Its pIC50 is 6.77.

With CS(=O)(=O)Cc1cccc(CC(=O)Nc2nnc(CCCCc3ccc(NC(=O)Cc4ccccc4)nn3)s2)c1 [Compound 634] as the compound, how does the pIC50 [1] read?
Its pIC50 is 7.32.

With O=C(Cc1ccccc1)Nc1nnc(CCCCc2nnc(NC(=O)Cc3ccccc3)o2)o1 [Compound 637] as the compound, how does the pIC50 [1] read?
Its pIC50 is < 4.30.

O=C(Cc1cccnc1)Nc1nnc(CCSCCc2nnc(NC(=O)Cc3cccnc3)s2)s1 [Compound 638] was tested. Which pIC50 [1] did it give?
Its pIC50 is 5.24.

With Cc1noc(Cc2cccc(CC(=O)Nc3ccc(CCCCc4nnc(NC(=O)Cc5ccccc5)s4)nn3)c2)n1 [Compound 648, 2-(3-((3-methyl-1,2,4-oxadiazol-5-yl)methyl)phenyl)-N-(6-(4-(5-(2-phenylacetamido)-1,3,4-thiadiazol-2-yl)butyl)pyridazin-3-yl)acetamide] as the compound, how does the pIC50 [1] read?
The pIC50 was 7.96.

With O=C(Cc1ccccc1)Nc1ccc(CCCCc2nnc(NC(=O)Cc3cccc4c3CNC4)s2)nn1 [Compound 650] as the compound, how does the pIC50 [1] read?
Its pIC50 is 6.85.

CC(=O)N1Cc2cccc(CC(=O)Nc3nnc(CCCCc4ccc(NC(=O)Cc5ccccc5)nn4)s3)c2C1 [Compound 651] was tested. Which pIC50 [1] did it give?
The pIC50 was 7.43.

How did the pIC50 [1] turn out when Cc1nnc(Cc2cccc(CC(=O)Nc3ccc(CCCCc4nnc(NC(=O)Cc5ccccc5)s4)nn3)c2)o1 [Compound 652, 2-(3-((5-methyl-1,3,4-oxadiazol-2-yl)methyl)phenyl)-N-(6-(4-(5-(2-phenylacetamido)-1,3,4-thiadiazol-2-yl)butyl)pyridazin-3-yl)acetamide] was run?
The pIC50 was 7.41.

CC(NC(=O)OC(C)(C)C)c1cc(CC(=O)Nc2nnc(CCCCc3ccc(NC(=O)Cc4ccccc4)nn3)s2)ccc1F (stereo not shown) [Compound 653] was tested. Which pIC50 [1] did it give?
Its pIC50 is 8.00.

With CC(NC(=O)OC(C)(C)C)c1cc(CC(=O)Nc2ccc(CCCCc3nnc(NC(=O)Cc4ccccc4)s3)nn2)ccc1F (stereo not shown) [Compound 654] as the compound, how does the pIC50 [1] read?
Its pIC50 is 8.15.

With Nc1nnc(CCCCc2ccc(NC(=O)Cc3cccc(OC(F)(F)F)c3)nn2)s1 [Compound 657, N-(6-(4-(5-amino-1,3,4-thiadiazol-2-yl)butyl)pyridazin-3-yl)-2-(3-(trifluoromethoxy)phenyl)acetamide] as the compound, how does the pIC50 (read-out: Cell prolif P493 72 h IC50, P493-6 cells, 72 h) read?
Its pIC50 is 5.82.

O=C(Cc1ccccc1)Nc1ccc(CCCCc2nnc(NC(=O)Cc3cccc(OC(F)F)c3)s2)nn1 [Compound 664] was tested. Which pIC50 [1] did it give?
The pIC50 was 7.22.

[2H]C([2H])(CCc1nnc(NC(=O)Cc2ccccn2)s1)C([2H])([2H])c1ccc(NC(=O)Cc2cccc(OC(F)(F)F)c2)nn1 [Compound 727] was tested. Which pIC50 (read-out: Cell prolif P493 72 h IC50, 72 h) did it give?
The pIC50 was 7.92.

O=C(Cc1ccccc1)Nc1ccc(CCCCc2ccc(NC(=O)Cc3ccccc3)nn2)nn1 [Compound 1038] was tested. Which pIC50 (P493-6, 72 h, read-out: Cell prolif P493 72 h IC50, P493 cells, 72 h) did it give?
The pIC50 was 5.82.
